Laboratory results: article PMC4875962 (Clinical Pharmacokinetics, 2015)
Entries after “also recorded” stand apart in the source; their conditions may differ. Like-named read-outs stand apart in the source and are kept apart here. Marks after values point to notes of the source that are not given here.

Experiments:
[1] = cited from earlier work
[2] = Drug-drug interaction studies: effect on edoxaban pharmacokinetics; details: coadministration of high-dose aspirin (325 mg); data on file
[3] = system: OCT2; details: cited from earlier work
[4] = system: OATP1B1; details: cited from earlier work
[5] = cited from earlier work; for dose–exposure relationship: oral doses 10–180 mg
[6] = cited from earlier work; remark: listed apart in the source
[7] = system: OAT1; details: read-out: IC50, inhibitory effect on OAT1; cited from earlier work
[8] = system: OATP1B1; details: read-out: IC50, inhibitory effect on OATP1B1; cited from earlier work
[9] = In vitro plasma protein binding
[10] = cited from earlier work; remark: listed apart in the source
[11] = system: CYPs; details: read-out: IC50, inhibitory effect on CYPs; cited from earlier work
[12] = system: ex vivo thrombus formation; details: single 60 mg dose, healthy subjects; cited from earlier work
[13] = system: Caco-2 cells; details: cited from earlier work
[14] = cited from earlier work; remark: listed apart in the source
[15] = system: OCT2; details: read-out: IC50, inhibitory effect on OCT2; cited from earlier work
[16] = cited from earlier work; remark: listed apart in the source
[17] = system: OATP1B3; details: read-out: IC50, inhibitory effect on OATP1B3; cited from earlier work
[18] = system: plasma anti-FXa activity, PT, aPTT; details: cited from earlier work
[19] = pH range of 3–7, decreases with increasing pH; cited from earlier work
[20] = 60 mg twice daily, elderly healthy subjects; cited from earlier work
[21] = cited from earlier work; remark: listed apart in the source
[22] = single dose, vs matched healthy controls; cited from earlier work
[23] = cited from earlier work; remark: listed apart in the source
[24] = cited from earlier work; remark: listed apart in the source
[25] = system: CYP3A4; assay: Induction of gene expression in human hepatocytes; details: data on file
[26] = system: P-glycoprotein (P-gp); details: Caco-2 cell monolayers; cited from earlier work
[27] = system: P-gp; details: read-out: IC50, inhibitory effect on P-gp; cited from earlier work
[28] = system: PT, INR, aPTT, intrinsic FX activity, thrombin generation, anti-FXa; details: cited from earlier work
[29] = 60 mg of [14C]-edoxaban, cited from earlier work
[30] = intravenous 30 mg, healthy subjects
[31] = single oral dose of edoxaban 60 mg, healthy subjects, mean ± SD
[32] = coadministration of amiodarone, following 3 days of once daily dosing
[33] = coadministration of cyclosporine
[34] = coadministration of dronedarone
[35] = coadministration of erythromycin
[36] = coadministration of high-dose aspirin (325 mg)
[37] = coadministration of ketoconazole
[38] = coadministration of oral quinidine
[39] = coadministration of sustained-release verapamil
[40] = rifampin after 7 days of dosing
[41] = 60 mg daily for 4 days, day 1 and day 4

reduction of renal clearance of edoxaban [2]: 17%
fraction unbound [9]: ~0.45
induction of gene expression of CYP3A4 [25]: do not induce
Compound: CN1CCc2nc(C(=O)N[C@@H]3C[C@@H](C(=O)N(C)C)CC[C@@H]3NC(=O)C(=O)Nc3ccc(Cl)cn3)sc2C1 [edoxaban]
pharmacokinetic parameters vs continual treatment with edoxaban ([1]; 60 mg on day 4 after rivaroxaban 20 mg once daily for 3 days): similar
pharmacokinetic parameters vs 4 days of continual edoxaban ([1]; 60 mg single dose after dabigatran 150 mg twice daily for 3 days): similar
anticoagulant effects (anti-FXa, PT, aPTT, ETP) vs 4 days of continual edoxaban ([1]; after switching from rivaroxaban): similar
PT and anti-FXa activities, switched from dabigatran vs continuous edoxaban [1]: not different
aPTT and ETP after switching from dabigatran [1]: carryover effect
effect of warfarin on the pharmacokinetics of edoxaban ([1]; switching 24 h after cessation of warfarin): no effect
substrate of OCT2 [3]: is not a substrate
substrate of OATP1B1 [4]: is not a substrate
effect of age, sex and race on edoxaban pharmacokinetics ([5]; after renal function is taken into account): do not affect
contribution of any individual metabolic pathway to total clearance [5]: ≤ 10%
inter- and intra-subject variability in clearance and volume of distribution [5]: < 30%
metabolism by CYP3A4 (CYP3A4/5) (share of clearance) [5]: < 10%
renal clearance as share of total clearance [5]: approximately 50%
Renal clearance ([5]; healthy subjects): about 10.7 ± 3.00 L/h
metabolism by CES1 (share of clearance) ([5]; human-specific metabolite): < 10%
CL total body clearance [5, 30]: approximately 22 L/h
V ss steady-state volume of distribution [5, 30]: approximately 107 L
V z volume of distribution based on the terminal phase [5, 30]: 205 ± 64.8 L
CL total body clearance ([5]; intravenous 30 mg, healthy subjects, listed as Edoxaban): 21.8 ± 3.03 L/h
dose–exposure relationship ([5]; healthy subjects): approximately dose proportional; also recorded: slightly less-than-dose-proportional
dose–exposure relationship ([5]; healthy subjects, listed as Edoxaban): generally linear and dose-proportional
terminal elimination half-life ([5]; oral, healthy subjects): 10 to 14 h
CLR (oral) ([5]; single oral dose of edoxaban 60 mg, healthy subjects, N = 32): 9.95 ± 2.32^a L/h
AUC∞ (oral) [5, 31]: 1766 ± 435.3 ng·h/mL
C max (oral) [5, 31]: 256 ± 87.7 ng/mL
t ½ (oral) [5, 31]: 11.5 ± 5.63 h
t max (oral) ([5]; single oral dose of edoxaban 60 mg, healthy subjects, median [minimum–maximum]): 1.02 [0.500–3.00] h
change in QTcI value, one subject ([6]; 90 mg dose group, 10 h postdose): 32 ms
upper bounds of the 95 % one-sided CIs for placebo-corrected QTcI change from time-matched baseline ([6]; 90 and 180 mg, any time point): ≤ 4 ms
effect on cardiac repolarization ([6]; 90 and 180 mg): did not have a threshold pharmacological effect
changes in QTcI, all except one subject ([6]; all time points): below 30 ms
absolute value of QTcI ([6]; any subject, 90 and 180 mg): ≤ 450 ms
IC50 [7]: ≥ 100 µM
IC50 [8]: ≥ 50 µM
increase in peak exposure to single doses of edoxaban [10, 32]: 66%
increase in total exposure to single doses of edoxaban [10, 32]: 40%
effect on peak or total exposure to edoxaban ([10]; coadministration of atorvastatin): no effect
increase in peak exposure to single doses of edoxaban [10, 33]: 74%
increase in total exposure to single doses of edoxaban [10, 33]: 73%
increase in edoxaban Cmax ([10]; coadministration of digoxin, steady state): 16%
effect on total exposure or renal clearance at steady state ([10]; coadministration of digoxin): no significant effect
increase in peak exposure to single doses of edoxaban [10, 34]: 46%
increase in total exposure to single doses of edoxaban [10, 34]: 85%
increase in peak exposure to single doses of edoxaban [10, 35]: 68%
increase in total exposure to single doses of edoxaban [10, 35]: 85%
increase in steady-state peak exposure to edoxaban [10, 36]: 34%
increase in steady-state total exposure to edoxaban [10, 36]: 30%
increase in single-dose peak exposure to edoxaban [10, 37]: 89%
increase in single-dose total exposure to edoxaban [10, 37]: 87%
effect on peak and total exposure to edoxaban ([10]; coadministration of naproxen): no effect
increase in 24-h exposure to orally dosed edoxaban [10, 38]: 77%
increase in single-dose peak exposure to orally dosed edoxaban [10, 38]: 85%
increase in 24-h exposure to single doses of edoxaban [10, 39]: 53%
increase in peak exposure to single doses of edoxaban [10, 39]: 53%
increase in exposure to edoxaban (Cmax and AUC) ([10]; concomitant P-gp inhibitor use): less than twofold
decrease in peak exposure to edoxaban ([10]; edoxaban 2 h after esomeprazole at steady state): about 33%
effect on peak and total exposure to edoxaban ([10]; enoxaparin dosed concomitantly or 12 h apart): did not affect
increase in Cmax of edoxaban ([10]; esomeprazole, 2-h stagger at steady state, 90 % CI 57.98–78.07): approximately 33%
effect on total exposure to edoxaban ([10]; esomeprazole, 2-h stagger at steady state, 90 % CI within 80–125 %): no significant effect
effect on peak and total exposure to edoxaban ([10]; esomeprazole, concurrent dosing): no significant effect
increase in peak exposure to intravenous edoxaban ([10]; orally administered quinidine): 7.5%
increase in total exposure to intravenous edoxaban ([10]; orally administered quinidine): 35%
decrease in total edoxaban exposure [10, 40]: about 34%
effect on peak edoxaban exposure [10, 40]: no effect
IC50 [11]: ≥ 100 µM
ex vivo thrombus formation under high and low shear rates [12]: markedly reduced
permeability in Caco-2 cells [13]: poor
effect on prolongation of bleeding time ([14]; coadministration of edoxaban and low-dose (100 mg) or high-dose aspirin (325 mg)): additive effect
increase in bleeding time vs naproxen alone ([14]; coadministration of edoxaban with naproxen, 90 % CI 98.1–151.0): 22%
IC50 [15]: ≥ 100 µM
partition in blood [16]: 46%
IC50 [17]: ≥ 50 µM
time to peak elevation of PT and aPTT [18, 41]: ≤ 2 h
time to return of PT and aPTT to near-baseline levels [18, 41]: ≤ 24 h
time to peak effects on anticoagulation markers (anti-FXa, PT, aPTT) ([18]; oral administration): 1 to 2 h
time to maximum effect on plasma anti-FXa activity ([18]; single dose 10–150 mg, healthy subjects): 1 to 2 h
solubility [19]: pH dependent
rebound effect following cessation of dosing [20]: no evidence of a rebound effect
fraction absorbed in the colon [21]: approximately 13%
effect of mild or moderate hepatic impairment on peak or total exposure [22]: did not significantly impact
increase of mean peak exposure (Cmax) in the fed state vs fasted state ([23]; 60 mg single dose): 6–22%
increase of total exposure with food ([23]; 60 mg single dose): 12–15%
effect of food on total exposure [23]: Coadministration with food does not affect total edoxaban exposure
effect of ABCB1 genotype (C3435T) on pharmacokinetics [24]: no effect
substrate of the efflux transporter P-gp [26]: is a substrate
IC50 [27]: ≥ 50 µM
effect on PT, INR, aPTT or intrinsic FX activity ([28]; coadministration of low-dose aspirin (100 mg)): did not significantly affect
effect on anti-FXa when both drugs coadministered ([28]; edoxaban 60 mg and subcutaneous enoxaparin 1 mg/kg): additive
total radioactive dose detected in faeces ([29]; healthy subjects): 62%
total radioactive dose detected in urine ([29]; healthy subjects): 35%
unchanged edoxaban in faeces, share of total administered radioactive dose [29]: 49%
unchanged edoxaban in urine, share of total administered radioactive dose [29]: 24%
